Values joined by “and” are separate entries in the source; they are usually repeats but may differ in a detail not shown here. Equal entries are not always repeated. Structures can show the parent of a compound that is named as a salt.
Row | Compound | melting point
1 | COc1cc2c(c(OC)c1OC)-c1ccc(OC)c(=O)cc1[C@@H](NC(C)=O)CC2 [colchicine] | 146 °C
2 | CC(=O)OCC(=O)[C@@]1(O)CC[C@H]2[C@@H]3CCC4=CC(=O)CC[C@]4(C)[C@H]3C(=O)C[C@@]21C [cortisone acetate] | 222 °C
3 | O=C(O)c1cc2ccccc2oc1=O [coumarin-3-carboxylic acid] | 192 °C
4 | N#CN [cyanamide] | 45 °C
5 | N#CCC(=O)NN [cyanoacetic acid hydrazide] | 108 °C
6 | OC1CCCCC1 [cyclohexanol] | 21 °C
7 | OC1CCCCCCC1 [cyclooctanol] | 15 °C
8 | O=C1CCCCCCC1 [cyclooctanone] | 40 °C
9 | O=C1CCCC1 [cyclopentanone] | -51 °C
10 | C1=CCCC1 [cyclopentene] | -135 °C
11 | OB(O)C1CC1 [cyclopropylboronic acid] | 93 °C
12 | CC1CC1 [cyclopropylmethane] | -177 °C
13 | CN1CCC(=C2c3ccccc3C=Cc3ccccc32)CC1 [cyproheptadine] | 113 °C
14 | C[C@@H](N)C(=O)O [d-alanine] | 291 °C
15 | CN(C)c1cccc2c(S(=O)(=O)Cl)cccc12 [dansyl chloride] | 72 °C
16 | BBBBBBBBBB [decaborane] | 101 °C
17 | O=C(c1c(F)c(F)c(F)c(F)c1F)c1c(F)c(F)c(F)c(F)c1F [decafluorobenzophenone] | 93 °C
18 | Fc1c(F)c(F)c(-c2c(F)c(F)c(F)c(F)c2F)c(F)c1F [decafluorobiphenyl] | 68 °C
19 | C[Si]1(C)O[Si](C)(C)O[Si](C)(C)O[Si](C)(C)O[Si](C)(C)O1 [decamethylcyclopentasiloxane] | -44 °C
20 | CCCCCCCCCC [decane] | -30 °C and -29.8 °C
21 | CCCCCCCCCC(=O)O [decanoic acid] | 31 °C
22 | CCCCCCCCCC#N [decanonitrile] | -15 °C
23 | CC(=O)C1C(=O)C=C(C)OC1=O (stereo not given) [dehydroacetic acid] | 111 °C
24 | O=C4\C=C2/[C@]([C@H]1CC[C@@]3([C@@H](C(=O)CO)CC[C@H]3[C@@H]1CC2)C)(C)CC4 [deoxycorticosterone] | 142 °C
25 | COc1ccc2c(c1)[C@@]13CCCC[C@@H]1[C@@H](C2)N(C)CC3 [dextromorphan] | 110 °C

Row | Compound | melting point
26 | CCCCCCCCCCNCCCCCCCCCC [di-n-decylamine] | 37 °C
27 | CCCCCCCCNCCCCCCCC [di-n-octylamine] | 14 °C
28 | CCCNCCC [di-n-propylamine] | -63 °C
29 | CC(C)(C)OC(=O)/N=N/C(=O)OC(C)(C)C [di-tert-butyl azodicarboxylate] | 91 °C
30 | COc1ccc(Cc2cnc(N)nc2N)cc1OC [diaveridine] | 233 °C
31 | c1ccc2c(c1)ccc1cc3c(ccc4ccccc43)cc12 [dibenz[a,h]anthracene] | 270 °C
32 | CN(C)CCN1C(=O)c2ccccc2N(C)c2ccccc21 [dibenzepin] | 116 °C
33 | c1ccc2c(c1)ccc1cc3c(ccc4ccccc43)cc12 [dibenzo[a,h]anthracene] | 266 °C
34 | O=C(/N=N/C(=O)OCc1ccccc1)OCc1ccccc1 [dibenzyl azodicarboxylate] | 45 °C
35 | c1ccc(COCc2ccccc2)cc1 [dibenzyl ether] | 4 °C
36 | CCCCOc1cc(C(=O)NCCN(CC)CC)c2ccccc2n1 [dibucaine] | 64.5 °C
37 | ClCCl [dichloromethane] | -95 °C
38 | CC(Oc1ccc(Cl)cc1Cl)C(=O)O (stereo not given) [dichlorprop] | 118 °C
39 | O=C(O)Cc1ccccc1Nc1c(Cl)cccc1Cl [diclofenac] | 157 °C
40 | C1CCC2OCCOCCOC3CCCCC3OCCOCCOC2C1 (stereo not given) [dicyclohexano-18-crown-6] | 50 °C
41 | C1CCC(NC2CCCCC2)CC1 [dicyclohexylamine] | -2 °C
42 | c1ccc(P(C2CCCCC2)C2CCCCC2)cc1 [dicyclohexylphenylphosphine] | 60 °C
43 | OCCNCCO [diethanolamine] | 29 °C
44 | CCOC(=O)c1cc(C)nn1C(=O)OCC [diethyl 3-methyl-1H-pyrazole-1,5-dicarboxylate] | 81 °C
45 | CCOC(=O)c1cc(C(=O)OCC)c([N+](=O)[O-])cc1[N+](=O)[O-] [diethyl 4,6-dinitrobenzene-1,3-dicarboxylate] | 124 °C
46 | CCOC(=O)C1=C(C(=O)OCC)C(C)N=N1 (stereo not given) [diethyl 5-methyl-1H-pyrazole-3,4-dicarboxylate] | 99 °C
47 | CCOC(=O)C(=Nn1nnc2ccccc21)C(=O)OCC [diethyl (1h-benzotriazol-1-yl)iminomalonate] | 100 °C
48 | CCOC(=O)/C=C/c1cccc(/C=C/C(=O)OCC)c1 [diethyl (2E,2'E)-3,3'-benzene-1,3-diylbisprop-2-enoate] | 54 °C
49 | CCOC(=O)C#CC(=O)OCC [diethyl acetylenedicarboxylate] | 2 °C
50 | CCOC(=O)C(NC(=O)c1ccccc1)C(=O)OCC [diethyl benzamidomalonate] | 63 °C

Row | Compound | melting point
51 | CCOC(=O)C(NC=O)C(=O)OCC [diethyl formamidomalonate] | 53 °C
52 | CCOC(=O)c1ccc(C(=O)OCC)cc1 [diethyl terephthalate] | 45 °C
53 | CCOC(=O)c1ccccc1C(=O)OCC [diethyl_phthalate] | -3 °C
54 | CCOC(=O)CCC(=O)OCC [diethyl_succinate] | -20 °C
55 | O=C(Cc1ccc(-c2ccccc2)cc1)Nc1ccccn1 [difenpiramide] | 122 °C
56 | O=C(O)c1cc(-c2ccc(F)cc2F)ccc1O [diflunisal] | 210 °C
57 | ICI [diiodomethane] | 6 °C
58 | CC(C)C(=O)C(C)C [diisopropyl ketone] | -69 °C
59 | CC(C)NC(C)C [diisopropylamine] | -61 °C
60 | COCOC [dimethoxymethane] | -105 °C
61 | COC(=O)CCCCC(=O)OC [dimethyl adipate] | 8 °C
62 | COC(=O)c1ccc(/C=C\c2ccc(C(=O)OC)cc2)cc1 [dimethyl cis-stilbene-4,4'-dicarboxylate] | 113 °C
63 | CSSC [dimethyl disulfide] | -85 °C
64 | COC(=O)/C=C/C(=O)OC [dimethyl fumarate] | 104 °C
65 | COC(=O)c1cccc(C(=O)OC)c1 [dimethyl isophthalate] | 69 °C
66 | COC(=O)C(=O)OC [dimethyl oxalate] | 52 °C
67 | COC(=O)c1ccccc1C(=O)OC [dimethyl phthalate] | 5 °C
68 | CS(C)=O [dimethyl sulfoxide] | 18 °C
69 | COC(=O)/C=C/C(=O)OC [dimethyl_fumarate] | 104 °C
70 | CS(C)=O [dimethyl_sulfoxide] | 18 °C
71 | Cc1ncc([N+](=O)[O-])n1C [dimetridazole] | 140 °C
72 | O=C(Oc1ccccc1)Oc1ccccc1 [diphenyl carbonate] | 79 °C
73 | c1ccc(Oc2ccccc2)cc1 [diphenyl ether] | 28 °C
74 | O=C(O)C(c1ccccc1)c1ccccc1 [diphenylacetic acid] | 147 °C
75 | C(#Cc1ccccc1)c1ccccc1 [diphenylacetylene] | 60 °C
